{"source": "ChEMBL document CHEMBL4813920", "about": "“Metronidazole-conjugates: A comprehensive review of recent developments towards synthesis and medicinal perspective” (Eur J Med Chem, 2021)", "key": {"Giardia intestinalis [1]": {"tested_on": "Giardia intestinalis", "experiment": "Antigiardial activity against Giardia intestinalis WB ATCC 30957 incubated for 72 hrs by trypan blue staining based assay", "assay_type": "functional, organism-based", "conditions": "Giardia duodenalis, WB ATCC 30957, 72 h"}, "Entamoeba histolytica [2]": {"tested_on": "Entamoeba histolytica", "experiment": "Antiamoebic activity against Entamoeba histolytica HK9 ATCC 30015 incubated for 72 hrs by trypan blue staining based assay", "assay_type": "functional, organism-based", "conditions": "ATCC 30015, 72 h"}, "Pancreatic alpha-amylase": {"molecular_target": "T1, Pancreatic alpha-amylase (Sus scrofa, UniProt P00690)", "T1 sequence (P00690 whole entry)": "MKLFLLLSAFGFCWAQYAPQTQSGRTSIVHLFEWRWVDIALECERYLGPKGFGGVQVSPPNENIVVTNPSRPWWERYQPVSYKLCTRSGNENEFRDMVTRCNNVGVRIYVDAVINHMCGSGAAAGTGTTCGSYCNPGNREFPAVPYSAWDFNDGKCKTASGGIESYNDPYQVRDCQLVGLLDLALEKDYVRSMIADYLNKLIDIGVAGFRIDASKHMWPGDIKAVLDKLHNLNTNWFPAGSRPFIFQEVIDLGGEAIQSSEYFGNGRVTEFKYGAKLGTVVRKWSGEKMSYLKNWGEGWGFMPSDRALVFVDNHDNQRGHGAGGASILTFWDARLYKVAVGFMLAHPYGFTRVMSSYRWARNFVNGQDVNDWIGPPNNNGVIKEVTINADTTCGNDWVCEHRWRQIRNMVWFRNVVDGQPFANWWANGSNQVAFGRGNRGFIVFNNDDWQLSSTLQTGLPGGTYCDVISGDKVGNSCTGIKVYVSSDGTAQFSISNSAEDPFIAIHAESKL", "experiment": "Inhibition of porcine pancreatic alpha-amylase using 1% starch as substrate preincubated for 10 mins followed by substrate addition and measured after 10 mins by absorbance method"}, "Candida albicans": {"tested_on": "Candida albicans", "experiment": "Antifungal activity against Candida albicans ATCC 10231 incubated for 24 hrs by broth microdilution method", "assay_type": "functional"}, "Staphylococcus aureus": {"tested_on": "Staphylococcus aureus", "experiment": "Antibacterial activity against Staphylococcus aureus ATCC 6538P incubated for 24 hrs by broth microdilution method", "assay_type": "functional"}, "Escherichia coli": {"tested_on": "Escherichia coli", "experiment": "Antibacterial activity against Escherichia coli ATCC 8739 incubated for 24 hrs by broth microdilution method", "assay_type": "functional"}, "HEK293": {"tested_on": "HEK293", "experiment": "Cytotoxicity against HEK293 cells after 24 hrs by MTT assay", "assay_type": "cell-based", "conditions": "Homo sapiens, HEK293, 24 h"}, "Giardia intestinalis [3]": {"tested_on": "Giardia intestinalis", "experiment": "Antigiardial activity against Giardia intestinalis WB ATCC 30957 by trypan blue staining based assay", "assay_type": "functional, organism-based", "conditions": "Giardia duodenalis"}, "Entamoeba histolytica [4]": {"tested_on": "Entamoeba histolytica", "experiment": "Antiamoebic activity against Entamoeba histolytica HK9 ATCC 30015 by trypan blue staining based assay", "assay_type": "functional, organism-based"}, "Clostridium sporogenes": {"tested_on": "Clostridium sporogenes", "experiment": "Antimicrobial activity against Clostridium sporogenes ATCC 19404 incubated for 24 hrs by broth microdilution method", "assay_type": "functional"}, "Leishmania braziliensis": {"tested_on": "Leishmania braziliensis", "experiment": "Antileishmanial activity against promastigote form of Leishmania braziliensis MHOM/BR/75/M2903 measured for 7 days by cell counting method", "assay_type": "functional", "conditions": "MHOM/BR/75/M2903, 168 h, time 7 day"}, "Leishmania mexicana": {"tested_on": "Leishmania mexicana", "experiment": "Antileishmanial activity against promastigote form of Leishmania mexicana MHOM/BZ/82/Bel21 measured for 7 days by cell counting method", "assay_type": "functional", "conditions": "MHOM/BZ/82/Bel21, 168 h, time 7 day"}, "Carbonic anhydrase 2": {"molecular_target": "Carbonic anhydrase 2 (Homo sapiens, UniProt P00918)", "experiment": "Inhibition of recombinant human carbonic anhydrase 2 preincubated with enzyme for 15 mins by phenol red dye based stopped flow CO2 hydration assay"}, "Carbonic anhydrase 9": {"molecular_target": "Carbonic anhydrase 9 (Homo sapiens, UniProt Q16790)", "experiment": "Inhibition of recombinant human carbonic anhydrase 9 preincubated with enzyme for 15 mins by phenol red dye based stopped flow CO2 hydration assay"}}}
{"smiles": "O=C(O)/C=C/c1ccc([N+](=O)[O-])o1", "values": [{"measurement": "IC50", "setting": "Giardia intestinalis [1]", "value": 67500, "unit": "nM"}, {"measurement": "IC50", "setting": "Entamoeba histolytica [2]", "value": 55700, "unit": "nM"}]}
{"smiles": "Cc1ncc([N+](=O)[O-])n1CCOCc1ccccc1", "values": [{"measurement": "IC50", "setting": "Pancreatic alpha-amylase", "value": "< 2980", "unit": "nM"}]}
{"smiles": "Cc1ccc(/C=N/CCn2c([N+](=O)[O-])cnc2C)cc1", "values": [{"measurement": "MIC", "setting": "Candida albicans", "value": 170, "unit": "µM"}]}
{"smiles": "COc1ccc(/C=N/CCn2c([N+](=O)[O-])cnc2C)cc1", "values": [{"measurement": "MIC", "setting": "Candida albicans", "value": 170, "unit": "µM"}]}
{"smiles": "Cc1ncc([N+](=O)[O-])n1CC/N=C/c1ccc([N+](=O)[O-])cc1", "values": [{"measurement": "MIC", "setting": "Candida albicans", "value": 170, "unit": "µM"}]}
{"smiles": "Cc1ncc([N+](=O)[O-])n1CC/N=C/c1ccccc1O", "values": [{"measurement": "MIC", "setting": "Staphylococcus aureus", "value": 2000, "unit": "µM"}, {"measurement": "MIC", "setting": "Candida albicans", "value": 170, "unit": "µM"}, {"measurement": "MIC", "setting": "Escherichia coli", "value": 2240, "unit": "µM"}]}
{"smiles": "Cc1ncc([N+](=O)[O-])n1CC/N=C/c1cc(Cl)ccc1O", "values": [{"measurement": "MIC", "setting": "Staphylococcus aureus", "value": 760, "unit": "µM"}, {"measurement": "MIC", "setting": "Candida albicans", "value": 170, "unit": "µM"}, {"measurement": "MIC", "setting": "Escherichia coli", "value": 760, "unit": "µM"}]}
{"smiles": "Cc1ncc([N+](=O)[O-])n1CC/N=C/c1ccccc1Cl", "values": [{"measurement": "MIC", "setting": "Candida albicans", "value": 170, "unit": "µM"}]}
{"smiles": "Cc1ncc([N+](=O)[O-])n1CC/N=C/c1cccs1", "values": [{"measurement": "MIC", "setting": "Candida albicans", "value": 170, "unit": "µM"}]}
{"smiles": "Cc1ncc([N+](=O)[O-])n1CC/N=C/c1ccc(F)cc1", "values": [{"measurement": "MIC", "setting": "Candida albicans", "value": 170, "unit": "µM"}]}
{"smiles": "Clc1ccc2c(N3CCNCC3)ccnc2c1", "values": [{"measurement": "IC50", "setting": "Giardia intestinalis [1]", "value": 88400, "unit": "nM"}, {"measurement": "IC50", "setting": "Entamoeba histolytica [2]", "value": 94300, "unit": "nM"}]}
{"smiles": "Cc1ncc([N+](=O)[O-])n1Cc1cn(CCCCCN2C(=O)C(=O)c3cc(Cl)ccc32)nn1", "values": [{"measurement": "IC50", "setting": "HEK293", "value": 12100, "unit": "nM"}]}
{"smiles": "Cc1ncc([N+](=O)[O-])n1CCNC(=O)/C=C/c1ccc([N+](=O)[O-])o1", "values": [{"measurement": "IC50", "setting": "Entamoeba histolytica [2]", "value": 5320, "unit": "nM"}]}
{"smiles": "Cc1ncc([N+](=O)[O-])n1CCN1CCN(c2ccnc3cc(Cl)ccc23)CC1", "values": [{"measurement": "IC50", "setting": "Entamoeba histolytica [2]", "value": 960, "unit": "nM"}]}
{"smiles": "COc1cc(COCCn2c([N+](=O)[O-])cnc2C)cc(OC)c1", "values": [{"measurement": "IC50", "setting": "Pancreatic alpha-amylase", "value": "< 2980", "unit": "nM"}]}
{"smiles": "CCOC(=O)[C@H](CC(=O)O)NC(=O)Cn1c([N+](=O)[O-])cnc1C", "values": [{"measurement": "IC50", "setting": "Giardia intestinalis [3]", "value": 2260, "unit": "nM"}, {"measurement": "IC50", "setting": "Entamoeba histolytica [4]", "value": 2210, "unit": "nM"}]}
{"smiles": "CCOC(=O)C(CCCCNC(=O)C(C)n1c([N+](=O)[O-])cnc1C)NC(=O)Cn1c([N+](=O)[O-])cnc1C", "note": "(centres undefined)", "values": [{"measurement": "IC50", "setting": "Giardia intestinalis [3]", "value": 3840, "unit": "nM"}, {"measurement": "IC50", "setting": "Entamoeba histolytica [4]", "value": 3950, "unit": "nM"}]}
{"smiles": "Cc1ncc([N+](=O)[O-])n1CCSc1nnc(-c2ccncc2)n1-c1cccc2ccccc12", "values": [{"measurement": "MIC", "setting": "Clostridium sporogenes", "value": 17.1, "unit": "µM"}]}
{"smiles": "COc1ccc(COCCn2c([N+](=O)[O-])cnc2C)cc1", "values": [{"measurement": "IC50", "setting": "Pancreatic alpha-amylase", "value": "< 2980", "unit": "nM"}]}
{"smiles": "Cn1c(-c2ccncc2)n[nH]c1=S", "values": [{"measurement": "IC50", "setting": "Giardia intestinalis [3]", "value": 1560, "unit": "nM"}, {"measurement": "IC50", "setting": "Entamoeba histolytica [4]", "value": 1370, "unit": "nM"}]}
{"smiles": "Cc1ccc(COCCn2c([N+](=O)[O-])cnc2C)cc1", "values": [{"measurement": "IC50", "setting": "Pancreatic alpha-amylase", "value": "< 2980", "unit": "nM"}]}
{"smiles": "Cc1ncc([N+](=O)[O-])n1CCSCOC(=O)c1cc(O)c(O)c(O)c1", "values": [{"measurement": "LC50", "setting": "Leishmania braziliensis", "value": 4000, "unit": "nM"}, {"measurement": "LC50", "setting": "Leishmania mexicana", "value": 1000, "unit": "nM"}]}
{"smiles": "Cc1ncc([N+](=O)[O-])n1CCOc1cccc(/C=N\\c2ccc(S(=O)(=O)Nc3nccs3)cc2)c1", "values": [{"measurement": "IC50", "setting": "Carbonic anhydrase 2", "value": 89, "unit": "nM"}, {"measurement": "IC50", "setting": "Carbonic anhydrase 9", "value": 38, "unit": "nM"}]}
{"smiles": "Cc1ccccc1COCCn1c([N+](=O)[O-])cnc1C", "values": [{"measurement": "IC50", "setting": "Pancreatic alpha-amylase", "value": "< 2980", "unit": "nM"}]}
{"smiles": "Cc1ncc([N+](=O)[O-])n1CCOCc1cccc([N+](=O)[O-])c1", "values": [{"measurement": "IC50", "setting": "Pancreatic alpha-amylase", "value": "< 2980", "unit": "nM"}]}
{"smiles": "Cc1ncc([N+](=O)[O-])n1CCSCOC(=O)c1ccc(O)c(O)c1", "values": [{"measurement": "LC50", "setting": "Leishmania braziliensis", "value": 13000, "unit": "nM"}, {"measurement": "LC50", "setting": "Leishmania mexicana", "value": 11000, "unit": "nM"}]}
{"smiles": "Cc1ncc([N+](=O)[O-])n1CCOCc1ccc(Cl)cc1", "values": [{"measurement": "IC50", "setting": "Pancreatic alpha-amylase", "value": "< 2980", "unit": "nM"}]}
